The source of these data is PMC2644050 (The Journal of pharmacology and experimental therapeutics, 2008).

Experiment [1] has as its target T1, human muscarinic M4 receptor (CHO M4) (Homo sapiens, UniProt P08173).
T1 sequence (P08173 1-479): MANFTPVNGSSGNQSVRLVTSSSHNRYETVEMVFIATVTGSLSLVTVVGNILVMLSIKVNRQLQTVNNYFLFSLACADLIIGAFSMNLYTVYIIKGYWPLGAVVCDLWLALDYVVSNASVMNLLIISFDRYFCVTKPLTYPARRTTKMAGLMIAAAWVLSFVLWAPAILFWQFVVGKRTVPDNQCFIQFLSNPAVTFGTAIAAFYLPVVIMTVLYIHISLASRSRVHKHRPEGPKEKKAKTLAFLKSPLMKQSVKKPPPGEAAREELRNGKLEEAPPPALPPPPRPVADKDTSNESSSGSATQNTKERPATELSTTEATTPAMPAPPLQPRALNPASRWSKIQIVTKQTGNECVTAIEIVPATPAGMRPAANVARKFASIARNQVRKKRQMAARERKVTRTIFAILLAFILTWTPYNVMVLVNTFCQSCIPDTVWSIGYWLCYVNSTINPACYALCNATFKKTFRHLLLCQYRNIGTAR
Briefly: inhibition of forskolin-stimulated cAMP accumulation, [3H]adenine pre-labeling. It counts as cell-based. To be noted: CHO M4 cells, Gi pathway, 10 μM forskolin; agonist.

Experiment [2] concerns the target T2, human muscarinic M1 receptor (CHO M1) (Homo sapiens, UniProt P11229).
T2 sequence (P11229 1-460): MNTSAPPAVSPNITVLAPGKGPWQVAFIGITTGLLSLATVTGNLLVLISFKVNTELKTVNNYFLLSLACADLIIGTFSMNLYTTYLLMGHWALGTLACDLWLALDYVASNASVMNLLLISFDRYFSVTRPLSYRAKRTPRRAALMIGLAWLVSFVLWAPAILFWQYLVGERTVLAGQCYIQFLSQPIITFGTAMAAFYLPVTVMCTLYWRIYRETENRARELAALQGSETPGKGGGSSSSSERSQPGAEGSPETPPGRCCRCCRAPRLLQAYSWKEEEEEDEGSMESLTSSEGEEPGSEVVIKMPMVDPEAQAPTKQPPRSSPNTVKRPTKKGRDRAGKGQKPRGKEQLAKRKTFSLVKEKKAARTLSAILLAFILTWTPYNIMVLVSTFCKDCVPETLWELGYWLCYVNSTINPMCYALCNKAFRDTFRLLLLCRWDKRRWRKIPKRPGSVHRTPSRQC
In words: stimulation of phosphoinositide hydrolysis, [3H]inositol pre-labeling. It counts as cell-based.

As to `C[N+](C)(C)CC#CCN1CCCC1=O` [oxotremorine-M], the “EC50 (μM)” value is given as 0.030 (−7.52 ± .07) μM in experiment [1] and 0.041 (−7.39 ± .05) μM in experiment [2].
